Source: ChEMBL document CHEMBL5352416, “Benzo[b]thiophene-2-carboxamides as novel opioid receptor agonists with potent analgesic effect and reduced constipation” (Eur J Med Chem, 2022)
Each block holds one compound with its values, some of them ahead of it. Calls of active or inactive are those of the source. No cut-off for these calls is given here.

What was measured:
Mu-type opioid receptor [1] = target: T1, Mu-type opioid receptor (Homo sapiens, UniProt P35372); assay: Agonist activity at human mu opioid receptor expressed in CHO-K1 cells coexpressing Galpha15 assessed as increase in fluorescence of [ca2+]i measured for 1.52 sec by FLIPR calcium assay; assay type: functional, cell-based
T1 sequence (P35372 whole entry): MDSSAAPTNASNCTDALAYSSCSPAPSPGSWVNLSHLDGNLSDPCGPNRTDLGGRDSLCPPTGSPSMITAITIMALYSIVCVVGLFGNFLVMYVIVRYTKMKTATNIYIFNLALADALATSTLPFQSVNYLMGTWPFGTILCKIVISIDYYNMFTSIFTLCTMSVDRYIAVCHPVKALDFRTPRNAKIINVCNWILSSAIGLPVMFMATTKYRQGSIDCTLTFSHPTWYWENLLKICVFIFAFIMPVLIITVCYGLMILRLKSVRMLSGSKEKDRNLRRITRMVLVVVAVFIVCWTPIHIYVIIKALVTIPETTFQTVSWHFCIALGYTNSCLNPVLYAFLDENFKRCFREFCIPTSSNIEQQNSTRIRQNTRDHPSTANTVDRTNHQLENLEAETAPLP

Mu-type opioid receptor [2] = target: T1, Mu-type opioid receptor; assay: Agonist activity at human mu opioid receptor expressed in CHO-K1 cells coexpressing Galpha15 assessed as increase in fluorescence of [ca2+]i by measuring maximum efficacy measured for 1.52 sec by FLIPR calcium assay relative to control; assay type: functional, cell-based
Mus musculus [3] = assay: Antinociceptive activity in thermal stimulated wild type C57BL/6 mouse assessed as tail flick latency at 126.4 to 252.8 microg/kg measured at 30 to 60 mins by tail flick test; assay type: functional, organism-based; details: dose 126.4-252.8 µg/kg, time 30-60 min
Mu-type opioid receptor [4] = target: T1, Mu-type opioid receptor; assay: Displacement of [3H]-Diprenorphine from human MOR receptor expressed in CHO-K1 cells assessed as inhibition constant measured for 1 hr by liquid scintillation counter analysis; assay type: cell-based
[5] = target: T2, Delta-type opioid receptor (Homo sapiens, UniProt P41143); assay: Displacement of [3H]-Diprenorphine from human DOR receptor expressed in CHO-K1 cells assessed as inhibition constant measured for 1 hr by liquid scintillation counter analysis; assay type: cell-based
T2 sequence (P41143 whole entry): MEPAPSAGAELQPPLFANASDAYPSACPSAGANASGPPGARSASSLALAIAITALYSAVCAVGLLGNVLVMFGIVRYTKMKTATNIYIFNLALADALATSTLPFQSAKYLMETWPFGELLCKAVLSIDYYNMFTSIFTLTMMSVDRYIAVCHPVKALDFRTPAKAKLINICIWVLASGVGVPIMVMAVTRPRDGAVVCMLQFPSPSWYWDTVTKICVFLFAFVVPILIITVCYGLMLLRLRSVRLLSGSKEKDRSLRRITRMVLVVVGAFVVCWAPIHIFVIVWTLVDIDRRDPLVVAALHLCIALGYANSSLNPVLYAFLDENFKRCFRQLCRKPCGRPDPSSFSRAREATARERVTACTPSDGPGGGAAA

Nociceptin receptor [6] = target: T3, Nociceptin receptor (Homo sapiens, UniProt P41146); assay: Displacement of [3H]-Nociceptin from human NOP receptor expressed in CHO-K1 cells assessed as inhibition constant measured for 1 hr by liquid scintillation counter analysis; assay type: cell-based
T3 sequence (P41146 whole entry): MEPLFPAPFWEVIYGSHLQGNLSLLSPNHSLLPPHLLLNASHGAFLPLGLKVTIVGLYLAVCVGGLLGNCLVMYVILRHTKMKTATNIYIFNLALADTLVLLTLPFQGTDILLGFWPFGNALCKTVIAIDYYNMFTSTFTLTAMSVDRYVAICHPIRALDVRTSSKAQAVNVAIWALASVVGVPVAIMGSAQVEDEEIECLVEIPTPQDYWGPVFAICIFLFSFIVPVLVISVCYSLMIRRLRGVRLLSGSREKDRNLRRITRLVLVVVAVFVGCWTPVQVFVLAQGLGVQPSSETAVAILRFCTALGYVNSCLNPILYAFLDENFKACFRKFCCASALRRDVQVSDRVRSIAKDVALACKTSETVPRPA

Mu-type opioid receptor [7] = target: T1, Mu-type opioid receptor; assay: Agonist activity at human mu opioid receptor expressed in CHO-K1 cells assessed as decrease in intracellular cAMP level measured after 1 hr by LANCE ultra cAMP assay; assay type: functional, cell-based
Nociceptin receptor [8] = target: T3, Nociceptin receptor; assay: Agonist activity at human NOP receptor expressed in CHO-K1 cells assessed as decrease in intracellular cAMP level measured after 1 hr by LANCE ultra cAMP assay; assay type: functional, cell-based
[9] = target: T2, Delta-type opioid receptor; assay: Agonist activity at human DOR receptor expressed in CHO-K1 cells assessed as decrease in intracellular cAMP level measured after 1 hr by LANCE ultra cAMP assay; assay type: functional, cell-based
Mu-type opioid receptor [10] = target: T1, Mu-type opioid receptor; assay: Agonist activity at human mu opioid receptor expressed in CHO-K1 cells assessed as […] beta-arrestin 2 recruitment measured after 1.5 hrs by PathHunter assay; assay type: functional, cell-based
Nociceptin receptor [11] = target: T3, Nociceptin receptor; assay: Agonist activity at human NOP receptor expressed in CHO-K1 cells assessed as […] beta-arrestin 2 recruitment measured after 1.5 hrs by PathHunter assay; assay type: functional, cell-based
[12] = target: T2, Delta-type opioid receptor; assay: Agonist activity at human DOR receptor expressed in CHO-K1 cells assessed as […] beta-arrestin 2 recruitment measured after 1.5 hrs by PathHunter assay; assay type: functional, cell-based
Nociceptin receptor [13] = target: T3, Nociceptin receptor; assay: Potency index, ratio of Nociceptin EC50 to test compound EC50 for agonist activity at human NOP receptor expressed in CHO-K1 cells assessed as […] beta-arrestin 2 recruitment measured after 1.5 hrs by PathHunter assay; assay type: functional, cell-based
[14] = target: T2, Delta-type opioid receptor; assay: Potency index, ratio of DADLE EC50 to test compound EC50 for agonist activity at human DOR receptor expressed in CHO-K1 cells assessed as […] beta-arrestin 2 recruitment measured after 1.5 hrs by PathHunter assay; assay type: functional, cell-based
Mu-type opioid receptor [15] = target: T1, Mu-type opioid receptor; assay: Agonist activity at human mu opioid receptor expressed in CHO-K1 cells assessed as decrease in intracellular cAMP level at 0.5 uM in presence of naltrexone; assay type: functional, cell-based; details: filed as agonist
Nociceptin receptor [16] = target: T3, Nociceptin receptor; assay: Agonist activity at human NOP receptor expressed in CHO-K1 cells assessed as decrease in intracellular cAMP level at 0.5 uM in presence of BAN ORL 24; assay type: functional, cell-based
[17] = target: T2, Delta-type opioid receptor; assay: Agonist activity at human DOR receptor expressed in CHO-K1 cells assessed as decrease in intracellular cAMP level at 0.5 uM in presence of naltrindole; assay type: functional, cell-based
[18] = Drug concentration in C57BL/6 mouse plasma at 2 mg/kg, sc measured for 5 min by ICP-MS analysis; assay type: ADME, organism-based
[19] = Drug concentration in C57BL/6 mouse plasma at 2 mg/kg, sc measured for 60 min by ICP-MS analysis; assay type: ADME, organism-based
[20] = Drug concentration in C57BL/6 mouse brain at 2 mg/kg, sc measured for 5 min by ICP-MS analysis; assay type: ADME, organism-based; details: read-out: Ct
[21] = Drug concentration in C57BL/6 mouse brain at 2 mg/kg, sc measured for 60 min by ICP-MS analysis; assay type: ADME, organism-based; details: read-out: Ct
[22] = Drug concentration in C57BL/6 mouse Intestine at 2 mg/kg, sc measured for 5 min by ICP-MS analysis; assay type: ADME, organism-based; details: read-out: Ct
[23] = Drug concentration in C57BL/6 mouse Intestine at 2 mg/kg, sc measured for 60 min by ICP-MS analysis; assay type: ADME, organism-based; details: read-out: Ct
Mus musculus [24] = assay: Antinociceptive activity in thermal stimulated sc dosed C57BL/6 mouse measured at 30 to 180 mins by tail flick test; assay type: functional; details: time 30-180 min
Mus musculus [25] = assay: Antinociceptive activity in thermal stimulated C57BL/6 mouse at 126.4 to 252.8 microg/kg, sc measured at 30 to 180 mins by tail flick test; assay type: functional, organism-based; details: dose 126.4-252.8 µg/kg, time 30-180 min
Mus musculus [26] = assay: Antinociceptive activity in thermal stimulated C57BL/6 mouse assessed as tail flick latency at 126.4 to 252.8 microg/kg, sc measured at 30 to 60 mins by tail flick test; assay type: functional, organism-based; details: dose 126.4-252.8 µg/kg, time 30-60 min
Mus musculus [27] = assay: Antinociceptive activity in thermal stimulated MOR-knockout C57BL/6 mouse assessed as delay in flick tail at 252.8 microg/kg, sc measured after 30 mins by tail flick test; assay type: functional, organism-based; details: dose 252.8 µg/kg
Mus musculus [28] = assay: Antinociceptive activity in CFA-induced mechanical allodynia C57BL/6 mouse model at 126.4 to 252.8 microg/kg, sc pretreated with CFA for 2 days followed by compound addition and measured after 1 day by von frey test; assay type: functional, organism-based; details: dose 126.4-252.8 µg/kg
Mus musculus [29] = assay: Antinociceptive activity in CFA-induced mechanical allodynia MOR knockout C57BL/6 mouse model at 252.8 microg/kg, sc administered twice daily pretreated with CFA for 2 days followed by compound addition and measured at 3 to 7 days by von frey test; assay type: functional, organism-based; details: dose 252.8 µg/kg, time 3-7 day
Mus musculus [30] = assay: Antinociceptive activity in thermal stimulated C57BL/6 mouse assessed as drug tolerance at 126.4 to 252.8 microg/kg, sc administered twice per day for 5 days and measured immediately by tail flick test; assay type: functional, organism-based; details: dose 126.4-252.8 µg/kg, time 5.0 day
Mus musculus [31] = assay: Antinociceptive activity in C57BL/6 mouse at 252.8 microg/kg, sc measured after 5 days in presence of BAN ORL 24 by tail flick test; assay type: functional, organism-based; details: dose 252.8 µg/kg, time 5.0 day
Mus musculus [32] = assay: Antinociceptive activity in C57BL/6 mouse at 252.8 microg/kg, sc measured after 5 days in presence of naltrindole by tail flick test; assay type: functional, organism-based; details: dose 252.8 µg/kg, time 5.0 day
Mus musculus [33] = assay: Antinociceptive activity in C57BL/6 mouse assessed as drug tolerance at 252.8 microg/kg, sc administered twice per day for 6 days and measured immediately by tail flick test; assay type: functional, organism-based; details: dose 252.8 µg/kg, time 6.0 day
Mus musculus [34] = assay: Antinociceptive activity in morphine tolerant C57BL/6 mouse at 252.8 microg/kg, sc administered twice per day for 6 days and measured after 30 min by tail flick test; assay type: functional, organism-based; details: dose 252.8 µg/kg
Mus musculus [35] = assay: Induction of motivational effect in C57BL/6 mouse assessed as increase in reward behaviour at 126.4 to 252.8 microg/kg, sc administered for 4 days and measured on day 6 by CPP analysis; assay type: functional, organism-based; details: dose 126.4-252.8 µg/kg, time 6.0 day

SMILES: Cc1ccc(C(CNC(=O)c2cc3ccccc3s2)N(C)C)cc1 (stereo unspecified)
- Activity (Mus musculus [3]): Active
- EC50 (Mu-type opioid receptor [1]): 8170 nM
- Emax (Mu-type opioid receptor [2]; filed as agonist): 114%
- Ki (Mu-type opioid receptor [4]): 0.3 nM
- Ki [5]: > 1 nM
- Ki (Nociceptin receptor [6]): 650 nM
- EC50 (Mu-type opioid receptor [7]): 0.23 nM
- EC50 (Nociceptin receptor [8]): 22 nM
- EC50 [9]: 2.13 nM
- EC50 (Mu-type opioid receptor [10]): 30 nM
- EC50 (Nociceptin receptor [11]): 44800 nM
- EC50 [12]: > 10000 nM
- Ratio EC50 (Nociceptin receptor [13]): 2200
- Ratio EC50 [14]: 233
- Activity (Mu-type opioid receptor [15]): Active
- Activity (Nociceptin receptor [16]): inactive
- Activity [17]: inactive
- concentration at 5 min [18]: 191 ng/mL
- concentration at 1 h [19]: 252 ng/mL
- concentration at 5 min [20]: 1110 ng/mL
- concentration at 1 h [21]: 2030 ng/mL
- concentration at 5 min [22]: 515 ng/mL
- concentration at 1 h [23]: 936 ng/mL
- Activity (Mus musculus [24]): Dose-Dependent Effect
- ED50 (Mus musculus [24]): 127 mg/kg
- Activity (Mus musculus [25]): Active
- Activity (Mus musculus [26]): Active
- Activity (Mus musculus [27]): Active
- Activity (Mus musculus [28]): Active
- Activity (Mus musculus [29]): Active
- Activity (Mus musculus [30]): Active
- Activity (Mus musculus [31]): Active
- Activity (Mus musculus [32]): Active
- Activity (Mus musculus [33]): Active
- Activity (Mus musculus [34]): Active
- Activity (Mus musculus [35]): Active

SMILES: CN(C)C(CNC(=O)c1cc2ccccc2s1)c1cccc(F)c1 (stereo unspecified)
- EC50 (Mu-type opioid receptor [1]): 1490 nM
- Emax (Mu-type opioid receptor [2]; filed as agonist): 106%

SMILES: CN(C)C(CNC(=O)c1cc2ccccc2s1)c1ccc(Cl)cc1 (stereo unspecified)
- EC50 (Mu-type opioid receptor [1]): 1260 nM
- Emax (Mu-type opioid receptor [2]; filed as agonist): 112%

SMILES: CN(C)C(CNC(=O)c1sc2ccccc2c1Cl)c1ccccc1Cl (stereo unspecified)
- EC50 (Mu-type opioid receptor [1]): 360 nM
- Emax (Mu-type opioid receptor [2]; filed as agonist): 93.8%

SMILES: CN1CCc2ccccc2C1CNC(=O)c1ccc(Cl)c(Cl)c1 (stereo unspecified)
- EC50 (Mu-type opioid receptor [1]): 0.276 nM
- Emax (Mu-type opioid receptor [2]; filed as agonist): 100%

SMILES: Cc1ccc2c(Cl)c(C(=O)NCCc3ccccc3Cl)sc2c1
- EC50 (Mu-type opioid receptor [1]): > 10000 nM
- Emax (Mu-type opioid receptor [2]): < 20%

SMILES: Cc1ccc2cc(C(=O)NCC(c3ccccc3Cl)N(C)C)sc2c1 (stereo unspecified)
- EC50 (Mu-type opioid receptor [1]): 1890 nM
- Emax (Mu-type opioid receptor [2]; filed as agonist): 58.4%

The remaining lines, values ahead:

- EC50 (Mu-type opioid receptor [1]): 400 nM
- Emax (Mu-type opioid receptor [2]; filed as agonist): 54.5%
SMILES: CN(C)C(CNC(=O)c1cccs1)c1ccccc1Cl (stereo unspecified)

- EC50 (Mu-type opioid receptor [1]): 6.4 nM
- Emax (Mu-type opioid receptor [2]; filed as agonist): 117%
SMILES: CN(C)C(CNC(=O)c1cc2ccccc2s1)c1ccc(F)cc1 (stereo unspecified)

- EC50 (Mu-type opioid receptor [1]): 4110 nM
- Emax (Mu-type opioid receptor [2]; filed as agonist): 116%
SMILES: Cc1cccc(C(CNC(=O)c2cc3ccccc3s2)N(C)C)c1 (stereo unspecified)

- EC50 (Mu-type opioid receptor [1]): 1060 nM
- Emax (Mu-type opioid receptor [2]; filed as agonist): 50.7%
SMILES: CN(C)C(CNC(=O)c1sccc1Cl)c1ccccc1Cl (stereo unspecified)
